From ChEMBL document CHEMBL5346863, “Discovery of substituted benzyloxy-benzylamine inhibitors of acetyltransferase Eis and their anti-mycobacterial activity” (Eur J Med Chem, 2022)
Converted amounts (≈) assume the structure as drawn. The source made the active and inactive calls. No cut-off for these calls is given here.

Tests used:
[1] = test system: Mycobacterium tuberculosis; experiment: Antibacterial activity against Mycobacterium tuberculosis K204 assessed as MIC of kanamycin A at 95.9 uM incubated for 24 hrs followed by kanamycin A addition measured after 6 days by alamarblue dye based assay; type: functional, organism-based; conditions: time 7.0 day
A549 = experiment: Cytotoxicity against human A549 cells upto 12.5 uM incubated for 24 hrs by resazurin dye based cell viability assay; type: toxicity; conditions: a549, 24 h
N-acetyltransferase Eis = target: T1, N-acetyltransferase Eis (Mycobacterium tuberculosis (strain ATCC 25618 / H37Rv), UniProt P9WFK7); experiment: Inhibition of wild-type Mycobacterium tuberculosis Eis expressed in Escherichia coli BL21(DE3) cells incubated for 5 mins by Ellman's method
T1 sequence (P9WFK7 whole entry): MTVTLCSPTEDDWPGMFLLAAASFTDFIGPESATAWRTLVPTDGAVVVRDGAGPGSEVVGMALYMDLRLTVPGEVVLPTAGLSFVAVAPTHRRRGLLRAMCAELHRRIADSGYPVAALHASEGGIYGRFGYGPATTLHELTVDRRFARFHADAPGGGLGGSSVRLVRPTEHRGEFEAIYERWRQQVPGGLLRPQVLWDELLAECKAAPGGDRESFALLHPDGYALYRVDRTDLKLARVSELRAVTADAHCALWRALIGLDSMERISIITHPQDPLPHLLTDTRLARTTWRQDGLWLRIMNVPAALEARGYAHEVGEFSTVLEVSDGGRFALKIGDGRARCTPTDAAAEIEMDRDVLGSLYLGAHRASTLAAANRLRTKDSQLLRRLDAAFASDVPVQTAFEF

[2] = test system: Mycobacterium intracellulare; experiment: Antibacterial activity against Mycobacterium intracellulare ATCC 13950 assessed as bacterial growth inhibition incubated for 2 to 3 weeks by resazurin dye based assay; type: functional; conditions: time 2-3 weeks
[3] = test system: Mycobacteroides abscessus; experiment: Antibacterial activity against Mycobacterium abscessus ATCC 19977 assessed as bacterial growth inhibition incubated for 2 to 3 weeks by resazurin dye based assay; type: functional; conditions: time 2-3 weeks
[4] = test system: Mycobacterium tuberculosis; experiment: Antibacterial activity against Mycobacterium tuberculosis H37Rv assessed as MIC of kanamycin A at 95.9 uM incubated for 24 hrs followed by kanamycin A addition measured after 6 days by alamarblue dye based assay; type: functional, organism-based; conditions: time 7.0 day
Mycobacterium avium = experiment: Antibacterial activity against Mycobacterium avium ATCC 25291 assessed as bacterial growth inhibition incubated for 2 to 3 weeks by resazurin dye based assay; type: functional; conditions: time 2-3 weeks
J774.1 = experiment: Cytotoxicity against mouse J774.1 cells upto 12.5 uM incubated for 24 hrs by resazurin dye based cell viability assay; type: toxicity; conditions: j774.1, 24 h
HEK293 = experiment: Cytotoxicity against HEK293 cells upto 12.5 uM incubated for 24 hrs by resazurin dye based cell viability assay; type: toxicity; conditions: human, hek293, 24 h
[5] = test system: Mycobacterium tuberculosis; experiment: Antibacterial activity against Mycobacterium tuberculosis H37Rv assessed as MIC of kanamycin A at 100 uM incubated for 24 hrs followed by kanamycin A addition measured after 6 days by alamarblue dye based assay; type: functional; conditions: time 7.0 day
[6] = test system: Mycobacterium tuberculosis; experiment: Antibacterial activity against Mycobacterium tuberculosis mc2 6230 assessed as bacterial growth inhibition incubated 2 to 3 weeks by resazurin dye based assay; type: functional; conditions: time 2-3 weeks
[7] = test system: Mycobacterium parascrofulaceum; experiment: Antibacterial activity against Mycobacterium parascrofulaceum ATCC BAA-614 assessed as bacterial growth inhibition incubated for 2 to 3 weeks by resazurin dye based assay; type: functional; conditions: time 2-3 weeks
[8] = test system: Mycolicibacterium smegmatis; experiment: Antibacterial activity against Mycobacterium smegmatis mc2 122 assessed as bacterial growth inhibition incubated for 2 to 3 weeks by resazurin dye based assay; type: functional; conditions: time 2-3 weeks
[9] = test system: Mycobacterium tuberculosis; experiment: Antibacterial activity against Mycobacterium tuberculosis H37Ra assessed as bacterial growth inhibition incubated 2 to 3 weeks by resazurin dye based assay; type: functional; conditions: time 2-3 weeks
[10] = test system: Mycobacterium tuberculosis; experiment: Antibacterial activity against Mycobacterium tuberculosis K204 assessed as MIC of kanamycin A at 71.7 uM incubated for 24 hrs followed by kanamycin A addition measured after 6 days by alamarblue dye based assay; type: functional, organism-based; conditions: time 7.0 day
[11] = test system: Mycobacterium tuberculosis; experiment: Antibacterial activity against Mycobacterium tuberculosis H37Rv assessed as MIC of kanamycin A at 71.7 uM incubated for 24 hrs followed by kanamycin A addition measured after 6 days by alamarblue dye based assay; type: functional, organism-based; conditions: time 7.0 day
[12] = test system: Mycobacterium tuberculosis; experiment: Antibacterial activity against Mycobacterium tuberculosis mc2 6230 assessed as MIC of kanamycin A at 25 uM incubated for 24 hrs followed by kanamycin A addition measured after 6 days by alamarblue dye based assay; type: functional; conditions: mc2 6230, 168 h, time 7 day
[13] = test system: Mycobacterium tuberculosis; experiment: Antibacterial activity against Mycobacterium tuberculosis mc2 6230 K204 assessed as MIC of kanamycin A at 25 uM incubated for 24 hrs followed by kanamycin A addition measured after 6 days by alamarblue dye based assay; type: functional; conditions: Mycobacterium tuberculosis, mc2 6230 K204, 168 h, time 7 day, read-out: MIC
[14] = test system: Mycobacterium tuberculosis; experiment: Antibacterial activity against Mycobacterium tuberculosis H37Rv assessed as MIC of kanamycin A at 54.8 uM incubated for 24 hrs followed by kanamycin A addition measured after 6 days by alamarblue dye based assay; type: functional, organism-based; conditions: time 7.0 day
[15] = test system: Mycobacterium tuberculosis; experiment: Antibacterial activity against Mycobacterium tuberculosis K204 assessed as MIC of kanamycin A at 54.8 uM incubated for 24 hrs followed by kanamycin A addition measured after 6 days by alamarblue dye based assay; type: functional, organism-based; conditions: time 7.0 day

Brc1ccc(COc2ccccc2CNCc2cccnc2)cc1
Activity [1]: Active
Activity (A549): Non-Toxic
IC50 (N-acetyltransferase Eis): ~8 µM
MIC [2]: > 62.5 µM
MIC [3]: > 62.5 µM
Activity [4]: Active
MIC (Mycobacterium avium): > 62.5 µM
Activity (J774.1): Non-Toxic
Activity (HEK293): Non-Toxic
Activity [5]: Active
MIC [6]: 100 µM (≈ 38.3 µg/mL)
MIC [7]: > 62.5 µM

NNC(=O)c1ccncc1 [ISONIAZID]
MIC [8]: 3.9 µM (≈ 0.535 µg/mL)
MIC [2]: 3.9 µM (≈ 0.535 µg/mL)
MIC [3]: > 31.3 µM
MIC (Mycobacterium avium): > 31.3 µM
MIC [7]: 7.8 µM (≈ 1.07 µg/mL)

CC(C)(C)c1ccc(COc2ccc(CNCc3ccccc3)cc2)cc1
MIC [8]: 3.9 µM (≈ 1.4 µg/mL)
IC50 (N-acetyltransferase Eis): > 200 µM
MIC [3]: 7.8 µM (≈ 2.8 µg/mL)
MIC (Mycobacterium avium): 31.3 µM (≈ 11.3 µg/mL)
MIC [9]: 1 µM (≈ 0.36 µg/mL)
MIC [6]: 12.5 µM (≈ 4.49 µg/mL)

c1ccc(CNCc2ccccc2OCc2ccccc2)cc1
MIC [8]: > 62.5 µM
IC50 (N-acetyltransferase Eis): ~15 µM
MIC [2]: 31.3 µM (≈ 9.5 µg/mL)
MIC (Mycobacterium avium): > 62.5 µM
Activity [5]: Active
MIC [6]: 100 µM (≈ 30.3 µg/mL)
MIC [7]: 15.6 µM (≈ 4.73 µg/mL)

Fc1ccc(COc2ccc(CNCc3cccnc3)cc2)cc1
Activity [10]: Active
IC50 (N-acetyltransferase Eis): 3.9 µM
MIC [2]: 31.3 µM (≈ 10.1 µg/mL)
MIC [3]: 31.3 µM (≈ 10.1 µg/mL)
MIC (Mycobacterium avium): > 62.5 µM
MIC [9]: 31.3 µM (≈ 10.1 µg/mL)
Activity [5]: Active
Activity [11]: Active
MIC [6]: 50 µM (≈ 16.1 µg/mL)

Fc1ccc(COc2cccc(CNCc3ccncc3)c2)cc1
MIC [8]: > 62.5 µM
IC50 (N-acetyltransferase Eis): 14 µM
MIC [2]: > 62.5 µM
MIC [3]: > 62.5 µM
MIC (Mycobacterium avium): > 62.5 µM
MIC [9]: 31.3 µM (≈ 10.1 µg/mL)
Activity [5]: Active
MIC [6]: 100 µM (≈ 32.2 µg/mL)
MIC [7]: > 62.5 µM

Fc1ccc(COc2ccccc2CNCc2ccccc2)cc1
MIC [8]: > 62.5 µM
Activity (A549): Non-Toxic
IC50 (N-acetyltransferase Eis): ~8 µM
MIC [2]: 31.3 µM (≈ 10.1 µg/mL)
MIC [3]: 31.3 µM (≈ 10.1 µg/mL)
MIC (Mycobacterium avium): > 62.5 µM
Activity (J774.1): Non-Toxic
Activity (HEK293): Non-Toxic
MIC [9]: 31.3 µM (≈ 10.1 µg/mL)
Activity [5]: Active
MIC [6]: 50 µM (≈ 16.1 µg/mL)
MIC [7]: 31.3 µM (≈ 10.1 µg/mL)

COc1ccc(COc2ccc(CNCc3ccccc3)cc2)cc1
MIC [8]: 62.5 µM (≈ 20.8 µg/mL)
IC50 (N-acetyltransferase Eis): 12 µM
MIC [3]: 31.3 µM (≈ 10.4 µg/mL)
MIC (Mycobacterium avium): 31.3 µM (≈ 10.4 µg/mL)
MIC [9]: 3.9 µM (≈ 1.3 µg/mL)
MIC [6]: 12.5 µM (≈ 4.17 µg/mL)

c1ccc(COc2ccc(CNCc3ccncc3)cc2)cc1
MIC [8]: > 62.5 µM
IC50 (N-acetyltransferase Eis): ~40 µM
MIC [2]: 62.5 µM (≈ 19 µg/mL)
MIC [3]: > 62.5 µM
MIC (Mycobacterium avium): 2 µM (≈ 0.609 µg/mL)
MIC [9]: > 62.5 µM
MIC [6]: 50 µM (≈ 15.2 µg/mL)

Brc1cccc(COc2ccc(CNCc3ccccc3)cc2)c1
MIC [12]: < 1.25 µM
MIC [8]: 2 µM (≈ 0.765 µg/mL)
IC50 (N-acetyltransferase Eis): 2.4 µM
MIC [2]: 3.9 µM (≈ 1.49 µg/mL)
MIC [3]: 31.3 µM (≈ 12 µg/mL)
MIC (Mycobacterium avium): 31.3 µM (≈ 12 µg/mL)
MIC [9]: 3.9 µM (≈ 1.49 µg/mL)
MIC [13]: ≤ 1.25 µM
MIC [6]: 50 µM (≈ 19.1 µg/mL)
MIC [7]: 2 µM (≈ 0.765 µg/mL)

Clc1ccc(COc2cccc(CNCc3ccccc3)c2)cc1
IC50 (N-acetyltransferase Eis): 5.4 µM
MIC [3]: 31.3 µM (≈ 10.6 µg/mL)
MIC [9]: 15.6 µM (≈ 5.27 µg/mL)
MIC [6]: 12.5 µM (≈ 4.22 µg/mL)

Clc1ccc(COc2cccc(CNCc3ccncc3)c2)cc1
Activity [14]: Active
IC50 (N-acetyltransferase Eis): ~20 µM
MIC [2]: 31.3 µM (≈ 10.6 µg/mL)
MIC [3]: > 62.5 µM
Activity [15]: Active
MIC (Mycobacterium avium): > 62.5 µM
MIC [9]: 31.3 µM (≈ 10.6 µg/mL)
Activity [5]: Active
MIC [6]: 50 µM (≈ 16.9 µg/mL)

Cc1ccc(COc2ccc(CNCc3ccccc3)cc2)cc1
MIC [8]: 1 µM (≈ 0.317 µg/mL)
IC50 (N-acetyltransferase Eis): > 200 µM
MIC [2]: 15.6 µM (≈ 4.95 µg/mL)
MIC [3]: 31.3 µM (≈ 9.94 µg/mL)
MIC (Mycobacterium avium): 15.6 µM (≈ 4.95 µg/mL)
MIC [9]: 15.6 µM (≈ 4.95 µg/mL)
MIC [6]: 1.56 µM (≈ 0.495 µg/mL)
MIC [7]: 15.6 µM (≈ 4.95 µg/mL)

Brc1ccccc1COc1ccc(CNCc2ccccc2)cc1
MIC [8]: 1 µM (≈ 0.382 µg/mL)
IC50 (N-acetyltransferase Eis): ~8 µM
MIC [2]: 3.9 µM (≈ 1.49 µg/mL)
MIC [3]: 31.3 µM (≈ 12 µg/mL)
MIC (Mycobacterium avium): 15.6 µM (≈ 5.96 µg/mL)
MIC [9]: 3.9 µM (≈ 1.49 µg/mL)
MIC [6]: 100 µM (≈ 38.2 µg/mL)
MIC [7]: 3.9 µM (≈ 1.49 µg/mL)
